According to ChEMBL document CHEMBL1201862, “PubChem BioAssay data set” (2004):
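Five compound concentrations were applied to cells in 96-well plates for 48 hours; endpoints were derived by simple linear interpolation of the resulting dose-response curve. At the GI50, growth is halved.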 Active and inactive are the calls of the source. Cut-off read from the data, not from the text of the source: active = GI50 up to about 1.1 µM and inactive = higher.

Legend:
Assay in all cases: NCI-60 cell line screen, 48 h
[1] = tested on: EKVX
[2] = tested on: HL-60
[3] = tested on: HOP-62
[4] = tested on: HOP-92
[5] = tested on: IGROV-1
[6] = tested on: K562
[7] = tested on: LOX IMVI
[8] = tested on: Malme-3M
[9] = tested on: NCI-H23
[10] = tested on: NCI-H522
[11] = tested on: OVCAR-4
[12] = tested on: OVCAR-5
[13] = tested on: OVCAR-8
[14] = tested on: RPMI-8226
[15] = tested on: SK-MEL-28
[16] = tested on: SK-MEL-2
[17] = tested on: SK-OV-3
[18] = tested on: TK-10
[19] = tested on: U-251
[20] = tested on: ACHN

SMILES | GI50 [1] | GI50 [2] | GI50 [3] | GI50 [4] | GI50 [5] | GI50 [6] | GI50 [7] | GI50 [8] | GI50 [9] | GI50 [10] | GI50 [11] | GI50 [12] | GI50 [13] | GI50 [14] | GI50 [15] | GI50 [16] | GI50 [17] | GI50 [18] | GI50 [19] | GI50 [20]
NS(=O)(=O)c1nnc(NC(=S)NC(=O)Nc2ccc(Cl)c(Cl)c2)s1 | 26.3 µM (inactive) | 26.9 µM (inactive) | 22.8 µM (inactive) | 13.5 µM (inactive) | 17.2 µM (inactive) | 30.4 µM (inactive) | 17.1 µM (inactive) | 22.6 µM (inactive) | 18.1 µM (inactive) | 14.8 µM (inactive) | 19.5 µM (inactive) | 25.1 µM (inactive) | 22.1 µM (inactive) | 25.8 µM (inactive) | 37.1 µM (inactive) | 31.8 µM (inactive) | 20.7 µM (inactive) | 34.9 µM (inactive) | 36.3 µM (inactive) | 
CC1=NN2C(=N)/C(=C/c3ccco3)C(=O)N=C2S1 | > 100 µM (inactive) | > 100 µM (inactive) | > 100 µM (inactive) | 65.5 µM (inactive) | > 100 µM (inactive) | > 100 µM (inactive) | > 100 µM (inactive) | > 100 µM (inactive) | > 100 µM (inactive) | 1.15 µM (inactive) | > 100 µM (inactive) | > 100 µM (inactive) | > 100 µM (inactive) | > 100 µM (inactive) | > 100 µM (inactive) | > 100 µM (inactive) | > 100 µM (inactive) | > 100 µM (inactive) | > 100 µM (inactive) | > 100 µM (inactive)
CC1=C2C(=O)O[C@@H](c3ccoc3)[C@]2(C)CCC1 [FRAXINELLONE] | > 100 µM (inactive) | > 100 µM (inactive) | > 100 µM (inactive) | 23.1 µM (inactive) | > 100 µM (inactive) | > 100 µM (inactive) | > 100 µM (inactive) | > 100 µM (inactive) | > 100 µM (inactive) | > 100 µM (inactive) | > 100 µM (inactive) | > 100 µM (inactive) | > 100 µM (inactive) | > 100 µM (inactive) | > 100 µM (inactive) | > 100 µM (inactive) | > 100 µM (inactive) | > 100 µM (inactive) | > 100 µM (inactive) | > 100 µM (inactive)
Cc1ccc2c(C(=O)c3c(C)n(CCN4CCOCC4)c4ccccc34)cccc2c1 | 20.5 µM (inactive) | 2.57 µM (inactive) | 27.3 µM (inactive) | 19.1 µM (inactive) | 19.3 µM (inactive) | 1.36 µM (inactive) | 12.9 µM (inactive) | 5.98 µM (inactive) | 14.8 µM (inactive) | 10.6 µM (inactive) | 15.4 µM (inactive) | 23.2 µM (inactive) | 10.8 µM (inactive) | 0.0592 µM (active) | 1.36 µM (inactive) | 17.4 µM (inactive) | 12.8 µM (inactive) | 23.7 µM (inactive) | 12.9 µM (inactive) | 28.6 µM (inactive)
Cc1c2c(c(C)c3c1[nH]c1ccccc13)CN(C)CC2 |  | 52 µM (inactive) | 23.2 µM (inactive) | 16.6 µM (inactive) | 26.8 µM (inactive) | 31.3 µM (inactive) | 15.5 µM (inactive) | 16.7 µM (inactive) | 15.4 µM (inactive) | 17 µM (inactive) | 23.4 µM (inactive) | 38.8 µM (inactive) | 16.4 µM (inactive) | 26.4 µM (inactive) | 19.2 µM (inactive) | 17.3 µM (inactive) | 25.5 µM (inactive) | 29.4 µM (inactive) | 12.1 µM (inactive) | 18.2 µM (inactive)
O=C(Cn1ccnc1[N+](=O)[O-])N(CCO)CCO | > 250 µM (inactive) | > 250 µM (inactive) | > 250 µM (inactive) | > 1250 µM (inactive) | > 250 µM (inactive) | > 250 µM (inactive) | > 1250 µM (inactive) | 135 µM (inactive) | > 250 µM (inactive) | > 250 µM (inactive) | > 250 µM (inactive) | > 250 µM (inactive) | > 250 µM (inactive) | 25 µM (inactive) | > 250 µM (inactive) | 191 µM (inactive) | > 250 µM (inactive) | > 250 µM (inactive) | > 250 µM (inactive) | > 250 µM (inactive)
OC1c2ccccc2C2(O)C1C(c1ccccc1)C(c1ccccc1)C2(O)c1ccccc1 (configuration not stated) | 15.4 µM (inactive) | 8.87 µM (inactive) | 13.2 µM (inactive) | 7.33 µM (inactive) | 18.2 µM (inactive) | 5.71 µM (inactive) | 5.4 µM (inactive) | 12.7 µM (inactive) | 13.3 µM (inactive) | 6.34 µM (inactive) | 19.5 µM (inactive) | 10.7 µM (inactive) | 12.6 µM (inactive) | 4.65 µM (inactive) | 11.9 µM (inactive) | 10.3 µM (inactive) | 22.2 µM (inactive) | 23.2 µM (inactive) | 8.17 µM (inactive) | 5.82 µM (inactive)
CCCCSC1=N/C(=C\c2ccc(N(C)C)cc2)C(=O)N1 | 19.1 µM (inactive) | 82.8 µM (inactive) | 46.2 µM (inactive) | 27.3 µM (inactive) | 35.3 µM (inactive) | 44.8 µM (inactive) | 28.6 µM (inactive) | 38.4 µM (inactive) | 67.9 µM (inactive) | 21.7 µM (inactive) | 21 µM (inactive) | 24.4 µM (inactive) | 54.1 µM (inactive) | 16.7 µM (inactive) | 61.9 µM (inactive) |  | 41.2 µM (inactive) | > 100 µM (inactive) | 18.4 µM (inactive) | 29.8 µM (inactive)
CC(C)(O)[C@@H]1CC[C@@]2(C)CCC[C@H](O)[C@H]2C1 |  | > 100 µM (inactive) | > 100 µM (inactive) | > 100 µM (inactive) | > 100 µM (inactive) | > 100 µM (inactive) | > 100 µM (inactive) | > 100 µM (inactive) | > 100 µM (inactive) | > 100 µM (inactive) | > 100 µM (inactive) | > 100 µM (inactive) | > 100 µM (inactive) | > 100 µM (inactive) | > 100 µM (inactive) | > 100 µM (inactive) | > 100 µM (inactive) | > 100 µM (inactive) | > 100 µM (inactive) | > 100 µM (inactive)
COC(=O)/C=C/c1ccc2c(c1)CCC2 | 82.6 µM (inactive) | 27.5 µM (inactive) | > 100 µM (inactive) | 5.28 µM (inactive) | 36.5 µM (inactive) | 30.8 µM (inactive) | > 100 µM (inactive) | 66.5 µM (inactive) | 37.2 µM (inactive) | 22.1 µM (inactive) | 74.3 µM (inactive) | > 100 µM (inactive) | 53.5 µM (inactive) | 74.5 µM (inactive) | > 100 µM (inactive) | 48 µM (inactive) | > 100 µM (inactive) | > 100 µM (inactive) | 9.79 µM (inactive) | 23.7 µM (inactive)
COC(=O)CCCC1(CCCC(=O)OC)CCCCCCCCC(CCCC(=O)OC)(CCCC(=O)OC)C(=O)C1=O | > 100 µM (inactive) | 2.17 µM (inactive) | 38.5 µM (inactive) | 20.6 µM (inactive) | 18.4 µM (inactive) | 4.78 µM (inactive) | 23 µM (inactive) | 26.1 µM (inactive) | 18.6 µM (inactive) | 2.24 µM (inactive) | 17.3 µM (inactive) | > 100 µM (inactive) | 50.7 µM (inactive) | < 0.01 µM (active) | > 100 µM (inactive) | 28.9 µM (inactive) | > 100 µM (inactive) | > 100 µM (inactive) | 18.9 µM (inactive) | 40.2 µM (inactive)
CCOC(=O)C1N(S(=O)(=O)c2ccc(C)cc2)CCC12C(c1ccc(OC)cc1)NC1CCCCC12 (configuration not stated) | > 100 µM (inactive) | > 100 µM (inactive) | 98.6 µM (inactive) | 22.9 µM (inactive) | > 100 µM (inactive) | > 100 µM (inactive) | > 100 µM (inactive) | 67.3 µM (inactive) | > 100 µM (inactive) | > 100 µM (inactive) | 27.2 µM (inactive) | > 100 µM (inactive) | > 100 µM (inactive) | > 100 µM (inactive) | > 100 µM (inactive) |  | > 100 µM (inactive) | > 100 µM (inactive) | 70.8 µM (inactive) | > 100 µM (inactive)
Oc1ccc2oc3c(O)c4ccccc4cc3c2c1 |  | 2.28 µM (inactive) | 35.2 µM (inactive) | 10.7 µM (inactive) | 0.851 µM (active) | 0.0632 µM (active) | 4.08 µM (inactive) | 11.4 µM (inactive) | 10.6 µM (inactive) | 1.01 µM (active) | 1.93 µM (inactive) |  | 4.56 µM (inactive) | 1.31 µM (inactive) | 7.24 µM (inactive) | 7.91 µM (inactive) | 16.2 µM (inactive) | 4.75 µM (inactive) | 4.86 µM (inactive) | 2.12 µM (inactive)
O=C(O)C1Cc2[nH]cnc2CN1 (configuration not stated) | > 100 µM (inactive) | > 100 µM (inactive) |  | > 100 µM (inactive) | > 100 µM (inactive) | > 100 µM (inactive) | > 100 µM (inactive) | > 100 µM (inactive) | > 100 µM (inactive) | > 100 µM (inactive) | > 100 µM (inactive) | > 100 µM (inactive) | > 100 µM (inactive) | > 100 µM (inactive) | > 100 µM (inactive) | > 100 µM (inactive) | > 100 µM (inactive) | > 100 µM (inactive) | > 100 µM (inactive) | > 100 µM (inactive)
